Assay: gradient 5% acetonitrile 3 min, to 50% in 2 min, to 85% in 15 min, held 3 min, 100 µL/min
Settings: column: Zorbax Extend-C18 2.1 x 50 mm; eluents: water / acetonitrile, 0.1% formic acid
How it was run: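 Standards, all pure, were combined into mixtures of ~100 molecules and run at 100 μL/min on a Zorbax Extend-C18 column (2.1 × 50 mm, 1.8 μm) with water and acetonitrile, each containing 0.1% formic acid. A coupled quadrupole time-of-flight mass spectrometer operated in positive and negative ionization mode. Retention time values come from computationally picked adduct peaks, each inspected manually.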

| Compound | RP-LC retention time |
| --- | --- |
| Cc1cc(C)cc(NC(=O)C2CCCN(c3ccc4cc(S(=O)(=O)N5CCCC5)ccc4n3)C2)c1 (stereo unspecified) | 835 s |
| COCCNC(=O)c1ccc2c(c1)CCCN2S(=O)(=O)c1ccccc1 | 767 s |
| O=C(Nc1ccc(F)c(F)c1)c1c(O)c2cccnc2n(Cc2ccccc2)c1=O | 1140 s |
| O=c1oc2cc(O)c(Cl)cc2c2ccccc12 | 847 s |
| COCCN(CCOC)C(=O)C12CCC(C)(C(=O)C1)C2(C)C (stereo unspecified) | 706 s |
| CCC1CCCCN1C(=O)CN1C(=O)CCCc2cc(S(=O)(=O)N3CCC(C)CC3)ccc21 (stereo unspecified) | 1040 s |
| O=C(Nc1ccc(F)cc1F)N1CCc2nc(-c3ccccc3)ncc2C1 | 881 s |
| O=C(Nc1cccc2cccnc12)c1ccc(N2C(=O)[C@@H]3[C@H](C2=O)[C@@H]2C=C[C@H]3C2)cc1 | 941 s |
| COc1ccc(-n2ccn3cc(-c4ccc(Br)cc4)nc3c2=O)cc1 | 891 s |
| CCN1CCN(C(=O)CN2C(=O)c3ccccc3Sc3ncccc32)CC1 | 581 s |
| COc1ccc(NC(=O)CSc2nnc3c4cc(-c5ccc(F)cc5)nn4ccn23)c(OC)c1 | 648 s |
| Cc1cc(C)c(NC(=O)C2CCCN(c3nc4ccccc4nc3C(F)(F)F)C2)c(C)c1 (stereo unspecified) | 701 s |
| CCc1noc([C@@H]2CC(F)(F)CN2C(=O)c2cnco2)n1 | 690 s |
| COC(=O)C1=C(C)NC(=O)NC1c1cn(-c2ccccc2)nc1-c1ccc(Cl)cc1 (stereo unspecified) | 784 s |
| CC(N)C(=O)OC(C)(C)Cc1ccc(Cl)cc1 (stereo unspecified) | 757 s |
| CCOC(=O)C1CCCN(c2ncc(S(=O)(=O)c3ccc(C)cc3)c(N)n2)C1 (stereo unspecified) | 983 s |

| Compound | RP-LC retention time |
| --- | --- |
| Cc1ccc(OCC(=O)Nc2cc3c(cc2C)n(C)c(=O)n3C)cc1 | 980 s |
| COCCc1noc(-c2nc(-c3ccc(C)cc3)no2)n1 | 1120 s |
| Cc1ccc(C(=O)Nc2ccc(CN3CCN(C)CC3)c(C(F)(F)F)c2)cc1C#Cc1cnc2cccnn12 | 812 s |
| Cc1nc(-c2csc(S(=O)(=O)N3CCCC(C(=O)Nc4cc(F)ccc4F)C3)c2)no1 (stereo unspecified) | 996 s |
| Cc1cc(Cl)ccc1S(=O)(=O)NCCn1c(C)cnc1C1CCC1 | 592 s |
| CCOc1cccc(-c2noc(Cn3ncn4nc(-c5ccccc5Cl)cc4c3=O)n2)c1 | 1250 s |
| Cn1cc(-c2cc3n(n2)CCC(=O)N3CC(=O)NCCCN2CCCCCC2)c2ccccc21 | 621 s |
| Cc1ccoc1C(=O)N1CC(F)(F)C[C@H]1c1nc(C2CC2)no1 | 723 s |
| CCOc1ccc(NC(=O)c2cn(C)nc2S(=O)(=O)N2CCC(C)CC2)cc1 | 1060 s |
| Cc1ccc(Cn2c(=O)c3sccc3n(Cc3nc(-c4ccc(OC(C)C)cc4)no3)c2=O)cc1 | 1280 s |
| O=C(N[C@H](Cc1ccccc1)C(=O)NCc1cscn1)c1ccccc1 | 738 s |
| CCCNC(=O)CCc1nc2ccccc2n(CC(=O)NCc2ccc(F)cc2)c1=O | 750 s |
| COc1ccc(-c2csc(Cc3nc(-c4cccc(Cl)c4)no3)n2)cc1OC | 1160 s |
| Cc1cc(C)c2c(-n3cccc3)c(C(=O)N3CCN(c4ccccn4)CC3)sc2n1 | 675 s |
| COc1ccc(C)cc1NS(=O)(=O)c1ccccc1-c1nc(-c2ccc(F)cc2)no1 | 1280 s |
| CCOCc1nc(C2CCCN(C(=O)C3(c4ccccc4)CC3)C2)no1 (stereo unspecified) | 873 s |

The next lines start with the values.

| RP-LC retention time | Compound |
| --- | --- |
| 537 s | CCN(CC)c1ncc2c(n1)CCC(C(=O)NCc1nc3ccccc3n1C)C2 (stereo unspecified) |
| 744 s | O=c1n(CCOc2ccc(F)cc2)nc2c(S(=O)(=O)N3CCCCCC3)cccn12 |
| 858 s | O=S(=O)(c1cccc2nsnc12)N1CCCC(Cc2noc(-c3cnccn3)n2)C1 (stereo unspecified) |
| 1020 s | Cc1ccc(-c2noc(CN3N=NC4C(=O)N(c5ccccc5)C(=O)C43)n2)cc1C (stereo unspecified) |
| 582 s | Cc1ccc(Cn2cc(-c3ccncc3)cc2C(=O)N2CCN(CC(C)C)CC2)cc1 |
| 856 s | CCN1c2cc(Cl)ccc2C(=O)NC12CCN(C(=O)NCc1cccc(F)c1)CC2 |
| 891 s | Cc1oc2ccn(Cc3ccccc3F)c(=O)c2c1C(=O)NCC1CCCO1 (stereo unspecified) |
| 620 s | Cc1ccc(Nc2cc(C)nc3ccnn23)cc1 |
| 984 s | CCOC(=O)c1c(S(=O)(=O)N2CCC(C(=O)Nc3ccc(CC)cc3)CC2)c(C)n(CC)c1C |
| 1170 s | Cc1nn(-c2ccc(-c3ccccc3)nn2)c(C)c1S(=O)(=O)N1CCCC(C)C1 (stereo unspecified) |
| 883 s | O=C(Nc1ccc(OCc2nnc(-c3ccccc3)o2)cc1)c1cncc(Br)c1 |
| 558 s | CCC(=O)NCc1nc2c(n1C)CN(S(=O)(=O)c1cccc(F)c1)CC2 |
| 1010 s | Cc1ccc(-c2nnc(-c3cccc(S(=O)(=O)N4CCCC4)c3)o2)cc1 |
| 817 s | Cc1nc(-c2cccc(F)c2)sc1CCNC(=O)Nc1ccc2c(c1)OCO2 |
| 771 s | CCc1ccc(Nc2nc(C(=O)N3CCOCC3)nc3ccccc23)cc1 |
| 726 s | CCN(CC)CCNC(=O)c1ccc(NCN2C(=O)NC(c3ccccc3)(c3ccccc3)C2=O)cc1 |
| 748 s | Cc1ccc(-n2nc3c(N4CCCC(C(=O)NCCc5cccs5)C4)nnc(C)c3c2C)cc1 (stereo unspecified) |
| 673 s | CC(=O)NCc1nc(-c2ccccc2Cl)no1 |
| 679 s | CCc1noc(NC(C)=O)c1-c1ccc(OC)c(S(=O)(=O)NC2CC2)c1 |
| 982 s | COc1cccc(NC(=O)Cn2c(=O)cc(-c3nc(C(C)C)no3)c3ccccc32)c1 |
| 953 s | COc1ccc(-n2c(=O)c3sccc3n(Cc3nc(-c4ccccc4)no3)c2=O)cc1 |
| 1290 s | Cc1ccc(F)cc1NC(=O)c1c(O)c2cccnc2n(-c2ccc(F)cc2)c1=O |
| 753 s | COc1cc(CN2C[C@@H]3C(=O)N(CCc4ccccc4)C(=O)[C@@H]3C2)cc(OC)c1 |
| 729 s | Cc1ccc(N(C)S(=O)(=O)c2cc(-c3[nH]ncc3C(=O)N(C)C)oc2C)cc1 |
| 864 s | Cc1cc2[nH]c(C(=O)Nc3cc(F)c(F)cc3F)c(CN3CCCC3)c2s1 |
| 596 s | CCC1CCCCN1CCCNC(=O)CCc1cc2cc(OC)ccc2[nH]c1=O (stereo unspecified) |
| 695 s | Cc1cc(C)cc(NC(=O)C2CCN(S(=O)(=O)c3c(C)[nH]c(C)c3C(=O)N3CCCC3)CC2)c1 |
| 771 s | COc1ccc(S(=O)(=O)N2C[C@H]3CN(C(=O)Nc4ccccc4C)C[C@@H](C2)O3)cc1 |
| 959 s | COc1ccc(-c2noc(CN3N=NC4C(=O)N(c5ccc6c(c5)CCC6)C(=O)C43)n2)c(OC)c1 (stereo unspecified) |

Reference: the METLIN SMRT retention time set (Domingo-Almenara et al. 2019)
